According to the CheMixHub viscosity set:
± gives the uncertainty stated by the source.

Test: xn = mol fraction of the nth substance listed

NC1CCCCC1 + CCCO
viscosity [mPa·s], 101 kPa
Conditions | 293.15 K | 298.15 K | 303.15 K
x1 = 0.0549 | 2.253 ± 0.047 | 2.004 ± 0.042 | 1.773 ± 0.037
x1 = 0.102 | 2.29 ± 0.047 | 2.036 ± 0.042 | 1.803 ± 0.037
x1 = 0.1983 | 2.392 ± 0.05 | 2.12 ± 0.044 | 1.871 ± 0.039
x1 = 0.3117 | 2.512 ± 0.052 | 2.213 ± 0.046 | 1.946 ± 0.04
x1 = 0.3529 | 2.548 ± 0.053 | 2.241 ± 0.047 | 1.968 ± 0.041
x1 = 0.4031 | 2.578 ± 0.054 | 2.266 ± 0.047 | 1.985 ± 0.041
x1 = 0.4387 | 2.588 ± 0.054 | 2.274 ± 0.047 | 1.996 ± 0.042
x1 = 0.4926 | 2.589 ± 0.054 | 2.271 ± 0.047 | 1.999 ± 0.042
x1 = 0.5491 | 2.568 ± 0.053 | 2.261 ± 0.047 | 1.992 ± 0.041
x1 = 0.6111 | 2.534 ± 0.053 | 2.229 ± 0.046 | 1.964 ± 0.041
x1 = 0.6604 | 2.485 ± 0.052 | 2.19 ± 0.046 | 1.928 ± 0.04
x1 = 0.704 | 2.454 ± 0.051 | 2.168 ± 0.045 | 1.91 ± 0.04
x1 = 0.7984 | 2.349 ± 0.049 | 2.078 ± 0.043 | 1.837 ± 0.038
x1 = 0.8844 | 2.241 ± 0.047 | 1.991 ± 0.042 | 1.766 ± 0.037
x1 = 0.9389 | 2.197 ± 0.046 | 1.955 ± 0.041 | 1.735 ± 0.036

Cc1ccccn1 + CCC(C)=O
viscosity [mPa·s], 101.3 kPa
Conditions | x1 = 0.1 | x1 = 0.2 | x1 = 0.3 | x1 = 0.4 | x1 = 0.5 | x1 = 0.6 | x1 = 0.7 | x1 = 0.7999 | x1 = 0.9
303.15 K | 0.4017 ± 0.0086 | 0.4296 ± 0.0092 | 0.4565 ± 0.0099 | 0.4877 ± 0.011 | 0.5193 ± 0.011 | 0.5612 ± 0.013 | 0.5978 ± 0.013 | 0.6425 ± 0.015 | 0.6942 ± 0.016
313.15 K | 0.3667 ± 0.0079 | 0.3917 ± 0.0084 | 0.416 ± 0.009 | 0.4445 ± 0.0097 | 0.4702 ± 0.01 | 0.5038 ± 0.011 | 0.5356 ± 0.012 | 0.5718 ± 0.013 | 0.6118 ± 0.014
323.15 K | 0.3457 ± 0.0074 | 0.3572 ± 0.0077 | 0.3813 ± 0.0083 | 0.4009 ± 0.0088 | 0.4264 ± 0.0094 | 0.4523 ± 0.01 | 0.4827 ± 0.011 | 0.5104 ± 0.012 | 0.5528 ± 0.013

ClC=C(Cl)Cl + CC(C)CO
viscosity [mPa·s]
Conditions | 293.15 K | 303.15 K | 313.15 K
101.3 kPa, x1 = 0.1086 | – | 2.134 ± 0.027 | –
101.3 kPa, x1 = 0.2127 | – | 1.627 ± 0.021 | –
101.3 kPa, x1 = 0.3178 | – | 1.273 ± 0.017 | –
101.3 kPa, x1 = 0.4018 | – | 1.075 ± 0.014 | –
101.3 kPa, x1 = 0.5178 | – | 0.889 ± 0.012 | –
101.3 kPa, x1 = 0.6042 | – | 0.795 ± 0.011 | –
101.3 kPa, x1 = 0.7191 | – | 0.703 ± 0.01 | –
101.3 kPa, x1 = 0.8127 | – | 0.644 ± 0.009 | –
101.3 kPa, x1 = 0.9144 | – | 0.581 ± 0.008 | –
101.33 kPa, x2 = 0.15 | 0.8993 ± 0.016 | 0.7678 ± 0.014 | 0.6502 ± 0.012
101.33 kPa, x2 = 0.3 | 1.228 ± 0.022 | 1.005 ± 0.018 | 0.8284 ± 0.015
101.33 kPa, x2 = 0.45 | 1.556 ± 0.027 | 1.242 ± 0.022 | 1.007 ± 0.018
101.33 kPa, x2 = 0.6 | 1.884 ± 0.032 | 1.478 ± 0.026 | 1.185 ± 0.021
101.33 kPa, x2 = 0.75 | 2.213 ± 0.038 | 1.715 ± 0.029 | 1.365 ± 0.024
101.33 kPa, x2 = 0.9 | 2.541 ± 0.043 | 1.952 ± 0.033 | 1.542 ± 0.027

CCCCn1cc[n+](C)c1.COP(=O)([O-])OC + CCCCn1cc[n+](C)c1.O=S(=O)([N-]S(=O)(=O)C(F)(F)F)C(F)(F)F
Conditions | viscosity [mPa·s]
298.15 K, 100 kPa, x2 = 0.25 | 432.5 ± 25

N=C(N)NCCC[C@H](N)C(=O)O + O
viscosity [mPa·s]
Conditions | 100 kPa | 101 kPa
293.15 K, x1 = 0.00045 | 1.015 ± 0.013 | –
293.15 K, x1 = 0.00135 | 1.038 ± 0.013 | –
293.15 K, x1 = 0.002247 | 1.06 ± 0.013 | –
293.15 K, x1 = 0.002695 | 1.071 ± 0.013 | –
293.15 K, x1 = 0.00359 | 1.094 ± 0.013 | –
293.15 K, x1 = 0.008927 | – | 1.295 ± 0.027
293.15 K, x1 = 0.01246 | – | 1.431 ± 0.03
298.15 K, x1 = 0.00135 | 0.9205 ± 0.011 | –
303.15 K, x1 = 0.00045 | 0.8065 ± 0.01 | –
303.15 K, x1 = 0.00135 | 0.8226 ± 0.01 | –
303.15 K, x1 = 0.001798 | 0.8306 ± 0.01 | –
303.15 K, x1 = 0.002247 | 0.8385 ± 0.01 | –
303.15 K, x1 = 0.003143 | 0.854 ± 0.011 | –
303.15 K, x1 = 0.00359 | 0.8618 ± 0.011 | 0.8782 ± 0.018
308.15 K, x1 = 0.003143 | 0.7665 ± 0.0095 | –
313.15 K, x1 = 0.003143 | 0.6924 ± 0.0086 | –
313.15 K, x1 = 0.005375 | – | 0.7504 ± 0.016
313.15 K, x1 = 0.01246 | – | 0.9039 ± 0.019
318.15 K, x1 = 0.002695 | 0.6262 ± 0.0078 | –
323.15 K, x1 = 0.0018 | – | 0.5712 ± 0.012
323.15 K, x1 = 0.00359 | – | 0.597 ± 0.013
323.15 K, x1 = 0.005375 | – | 0.6242 ± 0.013
323.15 K, x1 = 0.008927 | – | 0.6832 ± 0.014
323.15 K, x1 = 0.01246 | – | 0.7455 ± 0.016

CC(O)CO (configuration not stated) + CCCCCCO
101 kPa
Conditions | viscosity [mPa·s]
303.15 K, x2 = 0.6309 | 6.725 ± 0.094
308.15 K, x2 = 0.0771 | 20.05 ± 0.24

ClC=C(Cl)Cl + C1COCCO1
101.33 kPa
Conditions | viscosity [mPa·s]
298.15 K, x1 = 0.1027 | 1.036 ± 0.017
298.15 K, x1 = 0.2015 | 0.963 ± 0.016
298.15 K, x1 = 0.3002 | 0.909 ± 0.014
298.15 K, x1 = 0.409 | 0.854 ± 0.013
298.15 K, x1 = 0.502 | 0.814 ± 0.012
298.15 K, x1 = 0.6078 | 0.767 ± 0.011
298.15 K, x1 = 0.6921 | 0.732 ± 0.01
298.15 K, x1 = 0.8076 | 0.685 ± 0.009
298.15 K, x1 = 0.9058 | 0.649 ± 0.009
303.15 K, x2 = 0.0577 | 0.5863 ± 0.0044
303.15 K, x2 = 0.1189 | 0.6434 ± 0.0048
303.15 K, x2 = 0.289 | 0.7496 ± 0.0055
303.15 K, x2 = 0.3696 | 0.7787 ± 0.0057
303.15 K, x2 = 0.4012 | 0.7885 ± 0.0058
303.15 K, x2 = 0.5728 | 0.837 ± 0.0061
303.15 K, x2 = 0.6186 | 0.8515 ± 0.0062
303.15 K, x2 = 0.7841 | 0.9264 ± 0.0067
303.15 K, x2 = 0.892 | 0.9979 ± 0.0072
303.15 K, x2 = 0.9513 | 1.045 ± 0.0075
308.15 K, x1 = 0.1027 | 0.907 ± 0.015
308.15 K, x1 = 0.2015 | 0.852 ± 0.014
308.15 K, x1 = 0.3002 | 0.804 ± 0.013
308.15 K, x1 = 0.409 | 0.757 ± 0.012
308.15 K, x1 = 0.502 | 0.727 ± 0.011
308.15 K, x1 = 0.6078 | 0.693 ± 0.01
308.15 K, x1 = 0.6921 | 0.67 ± 0.009
308.15 K, x1 = 0.8076 | 0.64 ± 0.009
308.15 K, x1 = 0.9058 | 0.613 ± 0.008
318.15 K, x1 = 0.1027 | 0.815 ± 0.013
318.15 K, x1 = 0.2015 | 0.764 ± 0.012
318.15 K, x1 = 0.3002 | 0.726 ± 0.011
318.15 K, x1 = 0.409 | 0.69 ± 0.011
318.15 K, x1 = 0.502 | 0.673 ± 0.01
318.15 K, x1 = 0.6078 | 0.653 ± 0.009
318.15 K, x1 = 0.6921 | 0.635 ± 0.009
318.15 K, x1 = 0.8076 | 0.605 ± 0.008
318.15 K, x1 = 0.9058 | 0.586 ± 0.008

CC(O)CO (configuration not stated) + CCCCO
viscosity [mPa·s], 100 kPa
Conditions | 298.15 K | 303.15 K | 308.15 K | 313.15 K | 318.15 K | 323.15 K
x2 = 0.1 | 27.93 ± 0.76 | 21.57 ± 0.57 | 16.86 ± 0.44 | 13.38 ± 0.34 | 10.79 ± 0.27 | 8.811 ± 0.22
x2 = 0.2 | 19.65 ± 0.49 | 15.46 ± 0.38 | 12.28 ± 0.3 | 9.943 ± 0.24 | 8.14 ± 0.19 | 6.729 ± 0.16
x2 = 0.302 | 14.18 ± 0.34 | 11.36 ± 0.27 | 9.188 ± 0.21 | 7.539 ± 0.17 | 6.25 ± 0.14 | 5.239 ± 0.12
x2 = 0.4 | 10.82 ± 0.26 | 8.829 ± 0.21 | 7.309 ± 0.17 | 6.057 ± 0.14 | 5.107 ± 0.12 | 4.328 ± 0.097
x2 = 0.5 | 8.015 ± 0.19 | 6.634 ± 0.16 | 5.555 ± 0.13 | 4.699 ± 0.11 | – | –
x2 = 0.501 | – | – | – | – | 3.987 ± 0.092 | 3.422 ± 0.078
x2 = 0.6 | 6.068 ± 0.14 | 5.094 ± 0.12 | 4.337 ± 0.099 | 3.686 ± 0.084 | – | –
x2 = 0.601 | – | – | – | – | 3.178 ± 0.071 | 2.743 ± 0.061
x2 = 0.701 | 4.884 ± 0.11 | 4.156 ± 0.094 | 3.556 ± 0.08 | 3.057 ± 0.068 | 2.659 ± 0.059 | 2.317 ± 0.051
x2 = 0.801 | 3.858 ± 0.088 | 3.307 ± 0.075 | 2.885 ± 0.065 | 2.514 ± 0.056 | 2.199 ± 0.049 | 1.937 ± 0.043
x2 = 0.9 | 3.102 ± 0.07 | 2.716 ± 0.061 | 2.374 ± 0.053 | 2.078 ± 0.046 | – | –
x2 = 0.901 | – | – | – | – | 1.833 ± 0.04 | 1.634 ± 0.036

ClC=C(Cl)Cl + CC(C)(C)O
303.15 K, 101.3 kPa
Conditions | viscosity [mPa·s]
x1 = 0.1042 | 1.951 ± 0.025
x1 = 0.2103 | 1.329 ± 0.017
x1 = 0.3164 | 1.018 ± 0.014
x1 = 0.4143 | 0.856 ± 0.012
x1 = 0.5147 | 0.758 ± 0.01
x1 = 0.6204 | 0.689 ± 0.01
x1 = 0.7102 | 0.648 ± 0.009
x1 = 0.8036 | 0.608 ± 0.009
x1 = 0.9088 | 0.562 ± 0.008
